We go through one substance from US10709769B2, “Use of endostatin peptides for the treatment of fibrosis” (University of Pittsburgh—Of the Commonwealth System of …, priority 2009, dated 2020).

In assay [1] the test system is human skin explants. The experiment in a line: Ex vivo human skin fibrosis organ culture, dermal thickness. Format: cell-based. As for the experimental part:
Human abdominal skin was obtained from corrective plastic surgery. As previously described (Yasuoka et al., The Open Rheumatol J 2008; 2:17-22), subcutaneous fat tissue was removed uniformly and skin tissue was cut into 1.5 cm×1.5 cm sections. The following were injected intradermally in a total volume of 100 μl 1×PBS: rE alone (1-10 μg/ml), endostatin peptides alone (10 μg/ml), rE or endostatin peptides (1-20 μg/ml) in combination with TGF-β (10 ng/ml), and TGF-β alone (10 ng/ml). In some experiments, human skin was first injected with TGF-β for 48 h followed by recombinant endostain (rE) administration in the same injection site as TGF-β. Explants containing complete epidermal and dermal layers were cultured in an air liquid interface with the epidermal and keratin layers side up and exposed to air. The culture medium was replaced every other day. After 1 or 2 weeks, skin tissue corresponding to an area with 8-mm diameter centered around the injection site was harvested using disposable 8-mm Acu Punch® (Acuderm inc., Lauderdale, Fla.). Skin tissue was fixed in 10% formalin prior to embedding in paraffin.
Six μm sections of paraffin-embedded human and mouse skin tissues were stained with hematoxylin and eosin (H&E). In some experiments, sections were stained with Masson trichrome which identifies collagens. Images were taken on a Nikon Eclipse 800 microscope. The thickness of the dermis was measured in 6 random fields of each section using the image/J® software. Data are shown in arbitrary units.

The test system of assay [2] is mouse skin. As to the kind of experiment: Bleomycin-induced dermal fibrosis in vivo in mouse skin. As to conditions: single administration 10 μg/ml on first day, daily bleomycin s.c., skin harvested after 10 days. The protocol:
FIGS. 8A-8B. The effect of endostatin E-4 on bleomycin induced dermal fibrosis in vivo. A: Mice were injected subcutaneously with 1×PBS as vehicle (V) or Bleomycin (Bleo; 20 μg/mouse) daily. E-4 (10 μg/ml) was mixed with bleomycin on the first day, and daily bleomycin administration was continued without subsequent injections of E4 (Bleo+E-4). Skin was harvested after 10 days. Sections were stained with H&E. Magnification, 100×. B: Graphical summary of dermal thickness data shown in A. Data represent three independent experiments. Mann-Whitney U test was used for statistical analysis. * P<0.001, ** P<0.00001.
E4, a peptide representing the carboxy terminus of human endostatin, can attenuate fibrosis triggered by multiple fibrogenic factors. The anti-fibrotic effects of E4 can be detected whether administered concomitantly with or following the fibrogenic trigger. […]
For these studies, fibrosis was assessed by measurement of dermal thickness on H&E skin sections (skin), assessment of collagen levels by Masson Trichrome staining (skin and lung), and measurement of collagen levels by Sircol assay (lung). […] Results were assessed using the unpaired t test and the 3-way ANOVA (for the ID1 data).

The subject of assay [3] is lysyl oxidase (LOX). The experiment in a line: TGFβ-induced LOX production in primary human lung fibroblasts. As to conditions: normal lung fibroblasts passage 4, TGF-β followed 30 minutes later by E4, 48 hrs. Format: cell-based. The protocol: FIG. 13. E4 reduces fibrosis in vitro by blocking TGFβ-induced LOX production in primary human lung fibroblasts. Normal lung fibroblasts in passage 4 were treated with vehicle, E4, TGFbeta, or TGFbeta followed 30 min. later by E4. Media conditioned by the fibroblasts were analyzed using Western blot analysis after 48 hour. Lane 1: Vehicle (DMSO); Lane 2: E-4; Lane 3: TGF 3; Lane 4: TGF 3 followed by E4.
E4-mediated reduction of LOX was detected also was detected in vitro. Normal lung fibroblasts in passage 4 were treated with vehicle, E4, TGFβ, or TGF-β followed 30 minutes later by E4 (FIG. 13). Media conditioned by the fibroblasts were analyzed using western blot analysis after 48 hrs.

In the case of “H-^133SYCETWRTEAPSATGQASSLLGGRLLGQSAASCHHAYIVLCIENSFMT^180-CONH2 (H-SYCETWRTEAPSATGQASSLLGGRLLGQSAASCHHAYIVLCIENSFMT-NH2; cysteine pairing not given here; UniProt P39060 1704-1751, looked up, fragment) [E4, amino acids 133-180 of human endostatin; differs from E3 by the presence of a carboxy-terminal amide]”, the “TGF-β-induced skin fibrosis (dermal thickness), dose response” value in assay [1] (1, 5, 10, 20 μg/ml with TGF-β 10 ng/ml, effect at 5-20 μg/ml) is given as “clearly ameliorated”. In addition, in assay [1] (injected alone without TGF-β, rE 1, 5, 10 μg/ml, peptides 10 μg/ml), the “dermal thickness, baseline effect” value is “tendency towards reduction”. Moreover, in assay [1] (peptides 10 μg/ml with TGF-β 10 ng/ml, vs TGF-β alone), the “development of fibrosis as measured by dermal thickness” value is listed as “significantly abolished”. Besides, the “bleomycin induced dermal fibrosis (dermal thickness)” value in assay [2] is “significant attenuation”. Also, the “level of LOX (western blot of conditioned media)” value in assay [3] was “significantly reduced”.
